Reference: patent US8022268B2, “Transgenic animal model for alzheimer's disease” (The University of Zurich, priority 2007, dated 2011)

Experiments:
brain β-amyloid plaques = assay: Blood brain barrier penetration and binding to Aβ deposits after peripheral administration (double staining with 6E10 and anti-human IgG); type: in vivo; details: 24 month arcAβ mice, 3 mg/kg i.p. weekly for 2 months; 6E10 and anti-human IgG double staining
Procedure: ArcAβ mice were generated as described in the previous Examples on a hybrid background of C57B1/6 and DBA2. The test group was backcrossed once to C57B1/6. Mice were kept under standard housing conditions on a reversed 12 h:12 h light/dark cycle and had free access to food and water. The treatment groups were balanced for age and gender.
Recombinant human anti-Aβ antibody NI-101.10 was produced in stably transfected 293 HEK cells and purified using standard Protein A column purification. Control antibody Humira (Adalimumab, Abbott, Switzerland) was dissolved in medium conditioned by 293 HEK cells and purified as described.
(§1) 24 month old arcAβ mice were injected weekly i.p. with recombinant human NI-101.10 or Humira control antibody (3 mg/kg body weight) over a time period of 2 months (8 injections). The allocation of mice to the individual groups was: n=[…] and 4 wt for the NI-101.10 treatment groups; n=[…] and 6 wt for the control antibody treatment groups.
Mice were anesthetized (10 ul/g bw ketamin/xylaxine) and perfused transcardially with PBS. One brain hemisphere was dissected into cortex, hippocampus and cerebellum and immediately frozen on dry-ice for further biochemical analysis. The other hemisphere was fixed in 4% paraformaldehyde and embedded in paraffin. 5 μm sagittal sections were cut with a Leica RM 2135 microtome (Bannockburn, Ill.). […]

arcAβ mice = assay: fMRI vascular reactivity to acetazolamide (cerebral blood volume) after passive immunization; type: in vivo; details: transgenic (tg) arcAβ mice after 2 months antibody treatment
Procedure: as §1
ArcAβ mice and their wildtype littermates were measured before (n=3 tg and 3 wt) or after the antibody treatment (n=5 tg NI-101.10, 4 tg Humira, […], 6 wt Humira). Mice were anesthetized with Isofluran, intubated and artificially ventilated during the MR experiment. The mice were placed on a water-heated cradle and all agents were injected via cannula into the tail vein. Experiments were performed on a 4.7 Tesla Pharmascan 47/16 (Bruker BioSpin GmbH, Germany). Scan parameters of the RARE sequence (Hennig et al., Magn. Reson. Med. 3 (1986), 823-833) were set as followed: spatial resolution: 156×156×700 μm^3, temporal resolution: 40 s, repetition time: 2500 ms, echo time (eff. TE): 80.2 ms, field of view (FOV): 2×1.3 cm^2, RARE factor: 32, matrix dimension: 128×128, slice thickness: 0.7 mm, inter-slice distance: 1.2 mm, number of averages: 4, number of slices: 5. fMRI measurement comprised 3 phases: 8 baseline images (S pre) were acquired as reference for the determination of the relative cerebral blood volume (CBVrel) changes. […]

binding of human antibody to Aβ deposits in brain sections (brain β-amyloid plaques): No such binding
Substance: Adalimumab [Humira]
mean ACBV % (integrated, after acetazolamide 30 mg/kg) (arcAβ mice): 500%
